6 compounds from patent publication US7910612B2, “4-oxy-N-[1,3,4]-thiadiazol-2-yl-benzene sulfonamides, pharmaceutical compositions and methods for their therapeutic use” (Sanofi-Aventis, priority 2005, dated 2011) can be followed below.

In the assay the target is T1, human PPARalpha (Homo sapiens, UniProt Q07869).
T1 construct: amino acids S167-Y468; expressed in transfected cells; host or cells: HEK (human embryo kidney) cells, stably transfected, pcDNA3 vector
T1 sequence (Q07869 167-468): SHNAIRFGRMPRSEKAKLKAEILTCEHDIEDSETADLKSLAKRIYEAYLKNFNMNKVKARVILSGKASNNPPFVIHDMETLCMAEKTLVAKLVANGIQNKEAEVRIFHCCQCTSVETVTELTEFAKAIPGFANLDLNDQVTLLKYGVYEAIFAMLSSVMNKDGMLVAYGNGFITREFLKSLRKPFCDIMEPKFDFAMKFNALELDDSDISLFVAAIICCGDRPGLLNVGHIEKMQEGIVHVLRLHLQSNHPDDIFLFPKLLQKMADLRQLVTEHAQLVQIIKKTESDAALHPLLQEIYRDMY
As to the kind of experiment: cellular PPARalpha assay (stably transfected HEK luciferase reporter cell line). In kind it is cell-based. The protocol:
The activity of the compounds was tested by a determination of EC50 values of PPAR agonists in the cellular PPARalpha assay. The potency of substances which bind to human PPARalpha and activate it in an agonistic manner is analyzed using a stably transfected HEK cell line (HEK=human embryo kidney) which is referred to here as PPARalpha reporter cell line. It contains two genetic elements, a luciferase reporter element (pdeltaM-GAL4-Luc-Zeo) and a PPARalpha fusion protein (GR-GAL4-humanPPARalpha-LBD) which mediates expression of the luciferase reporter element depending on a PPARalpha ligand. The stably and constitutively expressed fusion protein GR-GAL4-humanPPARalpha-LBD binds in the cell nucleus of the PPARalpha reporter cell line via the GAL4 protein portion to the GAL4 DNA binding motifs 5′-upstream of the luciferase reporter element which is stably integrated in the genome of the cell line. There is only weak expression of the luciferase reporter gene in the absence of a PPARalpha ligand if fatty acid-depleted fetal calf serum (cs-FCS) is used in the assay. PPARalpha ligands bind and activate the PPARalpha fusion protein and thereby stimulate the expression of the luciferase reporter gene. The luciferase which is formed can be detected by means of chemiluminescence via an appropriate substrate.
The PPARalpha reporter cell line was prepared in two stages. Firstly, the luciferase reporter element was constructed and stably transfected into HEK cells. For this purpose, five binding sites of the yeast transcription factor GAL4 (Accession # AF264724) were cloned in 5′-upstream of a 68 bp-long minimal MMTV promoter (Accession #V01175). The minimal MMTV promoter section contains a […] and a TATA element in order to enable efficient transcription by RNA polymerase II. The cloning and sequencing of the GAL4-MMTV construct took place in analogy to the description of Sambrook J. et. al. (Molecular cloning, Cold Spring Harbor Laboratory Press, 1989). Then the complete Photinus pyralis gene (Accession #M15077) was cloned in 3′-downstream of the GAL4-MMTV element. After sequencing, the luciferase reporter element consisting of five GAL4 binding sites, MMTV promoter and luciferase gene was recloned into a plasmid which confers zeocin resistance in order to obtain the plasmid pdeltaM-GAL4-Luc-Zeo. This vector was transfected into HEK cells in accordance with the statements in Ausubel, F. M. et al. (Current protocols in molecular biology, Vol. 1-3, John Wiley & Sons, Inc., 1995).
In a second step, the PPARalpha fusion protein (GR-GAL4-humanPPARalpha-LBD was introduced into the stable cell clone described. For this purpose, initially the cDNA coding for the N-terminal 76 amino acids of the glucocorticoid receptor (Accession #P04150) was linked to the cDNA section coding for amino acids 1-147 of the yeast transcription factor GAL4 (Accession #P04386). The cDNA of the ligand-binding domain of the human PPARalpha receptor (amino acids S167-Y468; Accession #S74349) was cloned in at the 3′-end of this GR-GAL4 construct. The fusion construct prepared in this way (GR-GAL4-humanPPARalpha-LBD) was recloned into the plasmid pcDNA3 (Invitrogen) in order to enable constitutive expression therein by the cytomegalovirus promoter. This plasmid was linearized with a restriction endonuclease and stably transfected into the previously described cell clone containing the luciferase reporter element. The finished PPARalpha reporter cell line which contains a luciferase reporter element and constitutively expresses the PPARalpha fusion protein (GR-GAL4-human PPARalpha-LBD) was isolated by selection with zeocin (0.5 mg/ml) and G418 (0.5 mg/ml).
Assay procedure.—The activity of PPARalpha agonists is determined in a 3-day assay which is described below: […]
For `Cc1nc(-c2ccc(C(F)(F)F)cc2)sc1COc1ccc(S(=O)(=O)Nc2nnc(C(C)C)s2)cc1` [Example 1, N-(5-Isopropyl-[1,3,4]thiadiazol-2-yl)-4-[4-methyl-2-(4-trifluoromethyl-phenyl)-thiazol-5-ylmethoxy]-benzenesulfonamide], the EC50 stood at 2900 nM.

Take `CC(C)c1nnc(NS(=O)(=O)c2ccc(OCc3ccc(Oc4ccc(C(F)(F)F)cc4)cc3)cc2)s1` [Example 4, N-(5-Isopropyl-[1,3,4]thiadiazol-2-yl)-4-[4-(4-trifluoromethyl-phenoxy)-benzyloxy]-benzenesulfonamide]: the midpoint of the response, the EC50, lay at 540 nM.

Turning to `COc1ccc2c(COc3ccc(S(=O)(=O)Nc4nnc(C(C)C)s4)cc3)coc2c1` [Example 3, N-(5-Isopropyl-[1,3,4]thiadiazol-2-yl)-4-(6-methoxy-benzofuran-3-ylmethoxy)-benzenesulfonamide], the EC50 came out at 4570 nM. This EC50 lies about 8.5-fold higher than the previous one.

As to `COc1ccc(-c2nc(COc3ccc(S(=O)(=O)Nc4nnc(C(C)C)s4)cc3)no2)cc1` [Example 9, N-(5-Isopropyl-[1,3,4]thiadiazol-2-yl)-4-[5-(4-methoxy-phenyl)-[1,2,4]oxadiazol-3-ylmethoxy]-benzenesulfonamide], the EC50 was determined as 1420 nM.

Regarding `CCc1oc(-c2cccc(C(F)(F)F)c2)nc1COc1ccc(S(=O)(=O)Nc2nnc(C(C)C)s2)cc1` [Example 14, 4-[5-Ethyl-2-(3-trifluoromethyl-phenyl)-oxazol-4-ylmethoxy]-N-(5-isopropyl-[1,3,4]thiadiazol-2-yl)-benzenesulfonamide], it took 190 nM to reach a half-maximal effect (EC50). Against the preceding compound, the EC50 is about 7.5-fold lower.

`COc1ccc(-c2nc(COc3ccc(S(=O)(=O)Nc4nnc(C(C)C)s4)cc3)co2)cc1` [Example 13, N-(5-Isopropyl-[1,3,4]thiadiazol-2-yl)-4-[2-(4-methoxy-phenyl)-oxazol-4-ylmethoxy]-benzenesulfonamide] gave an EC50 of 1200 nM.

By EC50 is commonly meant the concentration that produces a half-maximal response. A high value points to a need for much substance.
